In patent publication US20170266266A1, “Functions of 55 Newfound Proteins and Their Medicinal Application in the Treatment and Prevention of Disease” (priority 2012, published 2017):
Entries after “also recorded” stand apart in the source; their conditions may differ. Read-outs that look alike come from different tables or passages of the source.

Legend:
[1] = test system: atherosclerosis in New Zealand white rabbit on high fat diet; details: for atherosclerosis Grade: individual animals; for high density lipoprotein cholesterin (HDL-C) Increase / high density lipoprotein cholesterin (HDL-C) Increase (%) / high density lipoprotein cholesterin (HDL-C) Wk 0 / high density lipoprotein cholesterin (HDL-C) Wk 19 / ligh density lipoprotein cholesterin (LDL-C) Increase / ligh density lipoprotein cholesterin (LDL-C) Increase (%) / ligh density lipoprotein cholesterin (LDL-C) Wk0 / ligh density lipoprotein cholesterin (LDL-C) Wk 19 / total cholesterol (TC) Increase / total cholesterol (TC) Increase (%) / total cholesterol (TC) Wk0 / total cholesterol (TC) Wk 19 / total triglyceride (TG) Increase / total triglyceride (TG) Increase (%) / total triglyceride (TG) Wk 0 / total triglyceride (TG) Wk 19: serum
Description: New Zealand rabbits were adopted in this animal study and divided into 5 groups. They were high dose, medium dose and low dose of treatment, positive and vehicle control. The treatment groups were given APOAI via auricular vein once a week. […] Positive controls were given Liptor daily by p.o. with a dose of 0.45 mg/kg body weight. […] The study duration was 19 weeks. At the end of study, all animals were sacrificed. […] Lipid content was examined in liver and aorta. And liver index was also determined.
The body weight was between 1.8-2.0 kg. The animals were quarantined for 5-10 days with normal diet before study.
Animals were randomly divided into 5 groups including vehicle control, high dose, medium dose, low dose and positive control group. Ten to 14 rabbits were in one group. Each rabbit was fed with 30 gram of high fat diet followed by 120 gram of normal diet with free access to water.
The frequency of dosing was once a week. Dose was 80, 40, 20 mg/kg body weight respectively. Drug was given by intravenous injection via auricular vein with the volume of 5 mL.
5.1 body weight: body weight of each rabbit was determined once a week.
Resulted blood samples were kept still for 2 hours and then spin with 4,000 rpm for 10 min.
Abdomen cavity was opened. Whole blood was taken from heart. Heart was harvested along with 7 cm of aorta.
The aorta was dissected for 0.5 cm from aortic arch, split longitudinally and then kept in cryo-preservation tube for later lipid analysis. One piece of this sample was fixed in formalin for further pathological analysis.
The weight of liver was determined immediately. Two pieces of specimen were cut from hepatic lobe.
Resulted blood samples were kept still for 2 hours.
The aorta was dissected and opened for 7.5 cm from aortic arch longitudinally. Pictures were taken and atherosclerosis changing was analyzed.

[2] = test system: SK-OV-3-luc ovarian cancer; test: Ovarian cancer survival in mice; type: in vivo; details: group mean, study still ongoing
From the text: Ovarian cancer study has been conducted at Wuxi AppTec under Dr. Yong Cang and the study is still ongoing as of Aug. 4, 2013. However in order to show the comparison mean days of the death of the mice in each group to compare with the positive drug group which has 76.8 days.
Bioluminescent images of RAAS-20120628-SK-OV-3-luc for all groups.
At day 63 after ovarian cancer has started an experiment of Kieu Hoang AFCC TM by oral application of four mice left from the entire group. That means that by day 63 ovarian cancer has already developed. In the beginning we forced the mice to drink without water, therefore the mice died in early stage.

[3] = test system: atherosclerosis in APOE KO mice; type: in vivo
[4] = test system: atherosclerosis in LDLR KO mice; test: Efficacy of AFOD RAAS 1 (APOA1) on atherosclerosis, LDLR KO mice; type: in vivo

Substance: human Apolipoprotein AI [APOAI]
- Lipid content in aorta: HDL-C ([1]; High dose): 0.111 ± 0.057
- Lipid content in aorta: LDL-C ([1]; High dose): 0.318 ± 0.05
- Lipid content in aorta: TC ([1]; High dose): 0.29 ± 0.098
- Lipid content in aorta: TG ([1]; High dose): 0.402 ± 0.101
- Lipid content in liver: HDL-C ([1]; High dose): 0.825 ± 0.129
- Lipid content in liver: LDL-C ([1]; High dose): 2.302 ± 0.054
- Lipid content in liver: TC ([1]; High dose): 2.841 ± 0.298
- Lipid content in liver: TG ([1]; High dose): 1.3 ± 0.171
- TG content in liver vs vehicle control ([1]; High dose): significantly lower
- Lipid content in aorta: HDL-C ([1]; Low dose): 0.092 ± 0.066
- Lipid content in aorta: LDL-C ([1]; Low dose): 0.254 ± 0.078
- Lipid content in aorta: TC ([1]; Low dose): 0.28 ± 0.047
- Lipid content in aorta: TG ([1]; Low dose): 0.337 ± 0.055
- Lipid content in liver: HDL-C ([1]; Low dose): 0.803 ± 0.236
- Lipid content in liver: LDL-C ([1]; Low dose): 1.857 ± 0.559
- Lipid content in liver: TC ([1]; Low dose): 2.95 ± 0.809
- Lipid content in liver: TG ([1]; Low dose): 1.369 ± 0.251
- Lipid content in aorta: HDL-C ([1]; Middle dose): 0.128 ± 0.064
- Lipid content in aorta: LDL-C ([1]; Middle dose): 0.307 ± 0.043
- Lipid content in aorta: TC ([1]; Middle dose): 0.332 ± 0.135
- Lipid content in aorta: TG ([1]; Middle dose): 0.388 ± 0.124
- Lipid content in liver: HDL-C ([1]; Middle dose): 0.815 ± 0.249
- Lipid content in liver: LDL-C ([1]; Middle dose): 1.407 ± 0.418
- Lipid content in liver: TC ([1]; Middle dose): 2.214 ± 0.515
- Lipid content in liver: TG ([1]; Middle dose): 1.081 ± 0.31
- liver and aorta of sacrificed animal ([1]; after 12 weeks of high fat diet, 1 animal): no abnormal change
- HDL-C vs vehicle control ([1]; all treatment groups): significantly high
- number of animals of Grade I ([1]; high dose group): Grade I: 0 animal;
- number of animals of Grade II ([1]; high dose group): Grade II: 5 animals;
- number of animals of Grade III ([1]; high dose group): Grade III: 0 animal;
- number of animals of Grade IV ([1]; high dose group): Grade IV: 3 animals.
- atherosclerosis Grade ([1]; high dose group): II (grade II was between 25% to 50%); also recorded: IV (Grade IV was greater than 75%)
- TG content in liver vs vehicle control ([1]; low dose): significantly lower
- liver cellular swelling vs vehicle control ([1]; low dose): same in low dose group and vehicle control
- liver fat degeneration vs vehicle control ([1]; low dose): better
- pathological change of aorta vs vehicle control ([1]; low dose): no significant improvement
- number of animals of Grade I ([1]; low dose group): Grade I: 9 animals;
- number of animals of Grade II ([1]; low dose group): Grade II: 1 animal;
- number of animals of Grade III ([1]; low dose group): Grade III: 0 animal;
- number of animals of Grade IV ([1]; low dose group): Grade IV: 2 animals.
- LDL-C content in liver vs vehicle control ([1]; medium dose): significantly lower
- TC content in liver vs vehicle control ([1]; medium dose): significantly lower
- TG content in liver vs vehicle control ([1]; medium dose): significantly lower
- area of atherosclerosis vs vehicle control ([1]; medium dose): significant less
- liver cellular swelling and fat degeneration vs vehicle control ([1]; medium dose): better
- number of animals of Grade I ([1]; medium dose group): Grade I: 6 animals;
- number of animals of Grade II ([1]; medium dose group): Grade II: 2 animals;
- number of animals of Grade III ([1]; medium dose group): Grade III: 0 animal;
- number of animals of Grade IV ([1]; medium dose group): Grade IV: 0 animal.
- atherosclerosis Grade ([1]; medium dose group): I (grade I was less than 25%); also recorded: II (grade II was between 25% to 50%)
- pathological change of aorta vs vehicle control ([1]; medium dose, endothelium swelling, smooth muscle migrating, foam cell formation): better
- atherosclerosis change in Arteria carotis ([1]; rabbit, in vivo): no atherosclerosis change found
- calcification, pathological examination ([1]; rabbit, in vivo): no calcification found
- high density lipoprotein cholesterin (HDL-C) Increase ([1]; High dose (n = 8)): 3.81 ± 2.025 mmol/L
- high density lipoprotein cholesterin (HDL-C) Increase (%) ([1]; High dose (n = 8)): 322.1%
- high density lipoprotein cholesterin (HDL-C) Wk 0 ([1]; High dose (n = 8)): 1.183 ± 0.149 mmol/L
- high density lipoprotein cholesterin (HDL-C) Wk 19 ([1]; High dose (n = 8)): 4.993 ± 2.018 mmol/L
- ligh density lipoprotein cholesterin (LDL-C) Increase ([1]; High dose (n = 8)): 13.18 ± 4.053 mmol/L
- ligh density lipoprotein cholesterin (LDL-C) Increase (%) ([1]; High dose (n = 8)): 1432.6%
- ligh density lipoprotein cholesterin (LDL-C) Wk0 ([1]; High dose (n = 8)): 0.92 ± 0.324 mmol/L
- ligh density lipoprotein cholesterin (LDL-C) Wk 19 ([1]; High dose (n = 8)): 14.1 ± 4.188 mmol/L
- total cholesterol (TC) Increase ([1]; High dose (n = 8)): 10.90 ± 2.66 mmol/L
- total cholesterol (TC) Increase (%) ([1]; High dose (n = 8)): 685.5%
- total cholesterol (TC) Wk0 ([1]; High dose (n = 8)): 1.59 ± 0.48 mmol/L
- total cholesterol (TC) Wk 19 ([1]; High dose (n = 8)): 12.49 ± 2.81 mmol/L
- high density lipoprotein cholesterin (HDL-C) Increase ([1]; Low dose (n = 12)): 3.04 ± 2.019 mmol/L
- high density lipoprotein cholesterin (HDL-C) Increase (%) ([1]; Low dose (n = 12)): 431.2%
- high density lipoprotein cholesterin (HDL-C) Wk 0 ([1]; Low dose (n = 12)): 0.705 ± 0.246 mmol/L
- high density lipoprotein cholesterin (HDL-C) Wk 19 ([1]; Low dose (n = 12)): 3.744 ± 2.14 mmol/L
- ligh density lipoprotein cholesterin (LDL-C) Increase ([1]; Low dose (n = 12)): 6.472 ± 4.468 mmol/L
- ligh density lipoprotein cholesterin (LDL-C) Increase (%) ([1]; Low dose (n = 12)): 783.5%
- ligh density lipoprotein cholesterin (LDL-C) Wk0 ([1]; Low dose (n = 12)): 0.826 ± 0.279 mmol/L
- ligh density lipoprotein cholesterin (LDL-C) Wk 19 ([1]; Low dose (n = 12)): 7.298 ± 4.60 mmol/L
- total cholesterol (TC) Increase ([1]; Low dose (n = 12)): 8.01 ± 4.87 mmol/L
- total cholesterol (TC) Increase (%) ([1]; Low dose (n = 12)): 755.6%
- total cholesterol (TC) Wk0 ([1]; Low dose (n = 12)): 1.06 ± 0.27 mmol/L
- total cholesterol (TC) Wk 19 ([1]; Low dose (n = 12)): 9.07 ± 4.92 mmol/L
- total triglyceride (TG) Increase ([1]; Low dose (n = 12)): 0.482 ± 0.839 mmol/L
- total triglyceride (TG) Increase (%) ([1]; Low dose (n = 12)): 61.3%
- total triglyceride (TG) Wk 0 ([1]; Low dose (n = 12)): 0.786 ± 0.229 mmol/L
- total triglyceride (TG) Wk 19 ([1]; Low dose (n = 12)): 1.267 ± 0.772 mmol/L
- high density lipoprotein cholesterin (HDL-C) Increase ([1]; Medium dose (n = 9)): 3.674 ± 2.413 mmol/L
- high density lipoprotein cholesterin (HDL-C) Increase (%) ([1]; Medium dose (n = 9)): 548.4%
- high density lipoprotein cholesterin (HDL-C) Wk 0 ([1]; Medium dose (n = 9)): 0.67 ± 0.207 mmol/L
- high density lipoprotein cholesterin (HDL-C) Wk 19 ([1]; Medium dose (n = 9)): 4.343 ± 2.439 mmol/L
- ligh density lipoprotein cholesterin (LDL-C) Increase ([1]; Medium dose (n = 9)): 5.297 ± 4.373 mmol/L
- ligh density lipoprotein cholesterin (LDL-C) Increase (%) ([1]; Medium dose (n = 9)): 499.7%
- ligh density lipoprotein cholesterin (LDL-C) Wk0 ([1]; Medium dose (n = 9)): 1.06 ± 0.298 mmol/L
- ligh density lipoprotein cholesterin (LDL-C) Wk 19 ([1]; Medium dose (n = 9)): 6.357 ± 4.475 mmol/L
- total cholesterol (TC) Increase ([1]; Medium dose (n = 9)): 8.505 ± 5.37 mmol/L
- total cholesterol (TC) Increase (%) ([1]; Medium dose (n = 9)): 453.0%
- total cholesterol (TC) Wk0 ([1]; Medium dose (n = 9)): 1.77 ± 0.783 mmol/L
- total cholesterol (TC) Wk 19 ([1]; Medium dose (n = 9)): 10.28 ± 5.82 mmol/L
- total triglyceride (TG) Increase ([1]; Medium dose (n = 9)): 1.488 ± 0.988 mmol/L
- total triglyceride (TG) Increase (%) ([1]; Medium dose (n = 9)): 226.8%
- total triglyceride (TG) Wk 0 ([1]; Medium dose (n = 9)): 0.656 ± 0.191 mmol/L
- total triglyceride (TG) Wk 19 ([1]; Medium dose (n = 9)): 2.144 ± 1.043 mmol/L
- blood lipid parameters ([1]; test article given along with high fat diet): no significant decrease in blood lipid parameters
- liver index ([1]; treatment group vs vehicle): lower in treatment group, but there's no statistical difference found
- lipid content in aorta vs vehicle control ([1]; treatment groups): lower in treatment groups than that in vehicle control but there was no statistical significance
- Mean Survival Time [2]: 115.8 days
- reduction and prevention of atherosclerosis ([3]; APOE KO mice): effective in the reduction and prevention of atherosclerosis
- pre-B HDL, western blot ([3]; after injection): increase of pre-B HDL
- antibody of APOA1 raised in mice ([3]; mouse, in vivo): no antibody of APOA1 raised
- reduction and prevention of atherosclerosis [4]: effective in the reduction and prevention of atherosclerosis
